# Assays:
# SlGAME5-like = assay: glycosyltransferase kinetics, […] substrate; assay type: biochemical, Solanum lycopersicum; conditions: 15 mM UDP-galactose as fixed glycosyl donor
# [1] = tested on: O=c1c(O)c(-c2ccc(O)c(O)c2)oc2cc(O)cc(O)c12; assay: purified protein; assay type: biochemical, Solanum lycopersicum; conditions: 15 mM UDP-galactose as fixed glycosyl donor
compound,measurement,setting,value
O=c1c(O)c(-c2ccc(O)c(O)c2)oc2cc(O)cc(O)c12 [quercetin],Km,SlGAME5-like,33 µM
C[C@H]1CC[C@]2(NC1)O[C@H]1C[C@H]3[C@@H]4CC[C@H]5C[C@@H](O)CC[C@]5(C)[C@H]4CC[C@]3(C)[C@H]1[C@@H]2C [tomatidine],Km,SlGAME5-like; methods print the varied substrate as tomatine,40 µM
SlGAME5 (Solanum lycopersicum),Km,[1],17.50 µM

# Reference: paper PMC9960814, “The SlDOG1 Affect Biosynthesis of Steroidal Glycoalkaloids by Regulating GAME Expression in Tomato” (International Journal of Molecular Sciences, 2023)
